Experimental data as given in PMC10302047, “Structure–Activity Relationship Studies of Indolglyoxyl-Polyamine Conjugates as Antimicrobials and Antibiotic Potentiators” (Pharmaceuticals, 2023).
≈ marks a conversion by molar mass, not a printed value. Like-named read-outs stand apart in the source and are kept apart here. Marks after values point to notes of the source that are not given here.

Key:
human red blood cells = assay: Hemolytic assay; type: cell-based; details: mean (n = 2)
Procedure: Hemolysis assays were conducted according to previously reported protocols.

MRSA ATCC 43300 = assay: Antimicrobial susceptibility (MIC), MRSA; type: cell-based; details: Staphylococcus aureus; MRSA ATCC 43300; mean (n = 2); read-out: MIC MRSA
Procedure: (§1) The susceptibility of bacterial strains S. aureus (ATCC 25923), E. coli (ATCC 25922) and P. aeruginosa (ATCC 27853) to antibiotics and compounds was determined according to previously reported protocols. Additional antimicrobial evaluation against MRSA (ATCC 43300) and C. albicans (ATCC 90028) was undertaken at the Community for Open Antimicrobial Drug Discovery at The University of Queensland (Australia) according to their standard protocols as reported previously.

[1] = test system: HEK293 (human embryonic kidney cells); details: HEK293; ref Cadelis et al. [16]; read-out: Cyto. IC50 (concentration of compound at 50% cytotoxicity); cited from earlier work
P. aeruginosa ATCC 27853 [2] = details: doxycycline at 2 µg/mL (4.5 µM), P. aeruginosa ATCC 27853; ref Cadelis et al. [16]; cited from earlier work
C. albicans ATCC 90028 [3] = test system: C. albicans ATCC 90028; set-up: method as in Cadelis et al. [16]; details: ref Cadelis et al. [16]; cited from earlier work
P. aeruginosa ATCC 27853 [4] = test system: P. aeruginosa ATCC 27853; set-up: method as in Cadelis et al. [16]; details: ref Cadelis et al. [16]; cited from earlier work
E. coli ATCC 25922 [5] = test system: E. coli ATCC 25922; set-up: method as in Cadelis et al. [16]; details: ref Cadelis et al. [16]; cited from earlier work
S. aureus ATCC 25923 [6] = details: S. aureus ATCC 25923; ref Cadelis et al. [16]; cited from earlier work
[7] = Cytotoxicity assay HEK293; type: cell-based, human; details: human, HEK293 cells, mean (n = 2), read-out: Cyto. IC50 (concentration of compound at 50% cytotoxicity)
Procedure: Cytotoxicity assays were conducted according to previously reported protocols.

E. coli ATCC 25922 [8] = assay: Antimicrobial susceptibility (MIC), E. coli; type: cell-based; details: Escherichia coli, ATCC25922, mean (n = 3)
Procedure: as §1

P. aeruginosa ATCC 27853 [9] = assay: Antibiotic potentiation (MIC of antibiotics in the presence of synergizing compounds), P. aeruginosa; type: cell-based, Pseudomonas aeruginosa; details: concentration required to restore doxycycline activity at 2 µg/mL (4.5 µM) against P. aeruginosa ATCC 27853
S. aureus ATCC 25923 [10] = assay: Antimicrobial susceptibility (MIC), S. aureus; type: cell-based, Staphylococcus aureus; details: Staphylococcus aureus, ATCC25923; S. aureus ATCC 25923; mean (n = 3)
Procedure: as §1

P. aeruginosa ATCC 27853 [11] = assay: Antimicrobial susceptibility (MIC), P. aeruginosa; type: cell-based; details: Pseudomonas aeruginosa, ATCC27853, mean (n = 3), read-out: MIC P. a
Procedure: as §1

C. albicans ATCC 90028 [12] = assay: Antifungal susceptibility (MIC), C. albicans; type: cell-based; details: Candida albicans, ATCC90028, mean (n = 2)
Procedure: as §1

Row | Compound | Hem. HC10 (concentration of compound at 10% hemolytic activity) (human red blood cells) [µM] | MIC (MRSA ATCC 43300) [µM] | IC50 [1] [µM] | Conc (µM) for Potentiation of doxycycline (P. aeruginosa ATCC 27853 [2]) | MIC C. a (C. albicans ATCC 90028 [3]) | MIC P. a (P. aeruginosa ATCC 27853 [4]) | MIC E. c (E. coli ATCC 25922 [5]) | MIC S. a (S. aureus ATCC 25923 [6]) | IC50 [7] [µM] | MIC (E. coli ATCC 25922 [8]) [µM] | Conc (µM) for Potentiation of doxycycline (P. aeruginosa ATCC 27853 [9]) [µM] | MIC (S. aureus ATCC 25923 [10]) [µM] | MIC (P. aeruginosa ATCC 27853 [11]) [µM] | MIC (C. albicans ATCC 90028 [12]) [µM]
1 | COc1cccc2c(C(=O)C(=O)NCCCNCCCCNCCCNC(=O)C(=O)c3c[nH]c4c(OC)cccc34)c[nH]c12 [Compound 7] | >38 | 38.4 (≈ 23.2 µg/mL) | 27 | 3.75 ^b µM | 38.4 ^h µM | >200 ^h µM | >200 ^h µM | 15 ^h µM |  |  |  |  |  | 
2 | O=C(NCCCNCCCCNCCCNC(=O)C(=O)c1c[nH]c2c(F)cccc12)C(=O)c1c[nH]c2c(F)cccc12 [Compound 6] | >40 | 19.8 (≈ 11.5 µg/mL) | 19 | 3.125 ^b µM | >39.6 ^h µM | 200 ^h µM | 200 ^h µM | 25 ^h µM |  |  |  |  |  | 
3 | O=C(NCCCNCCCCNCCCNC(=O)C(=O)c1c[nH]c2ccccc12)C(=O)c1c[nH]c2ccccc12 [Compound 2] | >41 | 41.4 (≈ 22.5 µg/mL) | > 41 |  | >41.4 ^h µM | >100 ^h µM | >100 ^h µM | >100 ^h µM |  |  |  |  |  | 
4 | COc1ccc2[nH]cc(C(=O)C(=O)NCCCNCCCCNCCCNC(=O)C(=O)c3c[nH]c4ccc(OC)cc34)c2c1 [Compound 4] | >38 | 38.4 (≈ 23.2 µg/mL) | > 38 | 12.5 ^b µM | >38.4 ^h µM | >200 ^h µM | >200 ^h µM | 100 ^h µM |  |  |  |  |  | 
5 | Cc1cccc2c(C(=O)C(=O)NCCCNCCCCNCCCNC(=O)C(=O)c3c[nH]c4c(C)cccc34)c[nH]c12 [Compound 8] | >40 | 20 (≈ 11.5 µg/mL) | > 40 | 6.25 ^b µM | >40.0 ^h µM | >200 ^h µM | >200 ^h µM | 25 ^h µM |  |  |  |  |  | 
6 | O=C(NCCCNCCCCNCCCNC(=O)C(=O)c1c[nH]c2ccc(Br)cc12)C(=O)c1c[nH]c2ccc(Br)cc12 [Compound 3] | >34 | 4.32 (≈ 3.03 µg/mL) | 14 | 3.125 ^b µM | >34.4 ^h µM | 50 ^h µM | 25 ^h µM | 3.125 ^h µM |  |  |  |  |  | 
7 | Cc1cccc2c(C(=O)C(=O)NCCCNCCCCCCNCCCNC(=O)C(=O)c3c[nH]c4c(C)cccc34)c[nH]c12.O=C(O)C(F)(F)F.O=C(O)C(F)(F)F [Compound 23a, N^1,N^6-Bis(3-(2-(7-methyl-1H-indol-3-yl)-2-oxoacetamido)propyl)hexane-1,6-diaminium 2,2,2-trifluoroacetate] | >39 | ≤ 0.3 |  |  |  |  |  |  | > 39 | 60 | 60 | 30.2 | > 240 | > 39
8 | COc1ccc2[nH]cc(C(=O)C(=O)NCCCNCCCCCCCCNCCCNC(=O)C(=O)c3c[nH]c4ccc(OC)cc34)c2c1 [Compound 19c] | 26 | > 36 |  |  |  |  |  |  | 18 | > 100 | 25 | > 100 | > 100 | 36 (≈ 23.8 µg/mL)
9 | COc1cccc2c(C(=O)C(=O)NCCCNCCCCCCNCCCNC(=O)C(=O)c3c[nH]c4c(OC)cccc34)c[nH]c12.O=C(O)C(F)(F)F.O=C(O)C(F)(F)F [Compound 22a, N^1,N^6-Bis(3-(2-(7-methoxy-1H-indol-3-yl)-2-oxoacetamido)propyl)hexane-1,6-diaminium 2,2,2-trifluoroacetate] | >37 | > 37 |  |  |  |  |  |  | > 37 | 400 | 100 | 50 | 800 | > 37
